The source made the active and inactive calls. The rule behind the calls is not given here.
Columns and labels:
[1] = Binding affinity to c-di-GMP (unknown origin) at 5 uM using varying level of c-di-GMP by fluorescence method
[2] = tested on: Quadruplex DNA; experiment: Induction of c-di-GMP G-quadruplex formation (unknown origin) measured at 300 nanometer by CD spectroscopy; format: nucleic-acid assay
[3] = tested on: Pseudomonas aeruginosa; experiment: Effect on swarming capacity of Pseudomonas aeruginosa PAO1 harboring wspF gene mutation assessed as increase in motility at 5 uM incubated for 14 hrs relative to control; format: functional
[4] = tested on: c-di-GMP G-quadruplex; experiment: Induction of c-di-GMP G-quadruplex formation in Pseudomonas aeruginosa PAO1 harboring wspF gene mutation assessed as reduction in pelB expression at 1.25 uM by RT-PCR method
[5] = tested on: c-di-GMP G-quadruplex; experiment: Induction of c-di-GMP G-quadruplex formation in Pseudomonas aeruginosa PAO1 harboring wspF gene mutation assessed as induction of fliD expression at 1.25 uM incubated for 15 hrs by transcriptome analysis
[6] = tested on: Pseudomonas aeruginosa; experiment: Antibacterial activity against Pseudomonas aeruginosa PAO1 harboring wspF gene mutation assessed as reduction in bacterial growth at 512 uM by crystal violet staining assay relative to control; format: functional, organism-based
[7] = tested on: c-di-GMP G-quadruplex; experiment: Induction of c-di-GMP G-quadruplex formation in Pseudomonas aeruginosa PAO1 harboring wspF gene mutation and LacZ reporter gene assessed as reduction in PelA expression by measuring decrease in lacZ activity at 0.3125 to 1.25 uM incubated for 4 hrs by absorbance method; conditions: dose 0.3125-1.25 µM
[8] = tested on: c-di-GMP G-quadruplex; experiment: Induction of c-di-GMP G-quadruplex formation in Pseudomonas aeruginosa PAO1 harboring wspF gene mutation assessed as inhibition of biofilm formation at 1.25 uM incubated for 20 hrs by crystal violet staining assay relative to control; format: nucleic-acid assay
[9] = tested on: c-di-GMP G-quadruplex; experiment: Induction of c-di-GMP G-quadruplex formation in Pseudomonas aeruginosa PAO1 harboring wspF gene mutation assessed as inhibition of biofilm formation incubated for 20 hrs by crystal violet staining assay relative to control; format: nucleic-acid assay
[10] = tested on: Pseudomonas aeruginosa; experiment: Effect on extracellular polysaccharide in Pseudomonas aeruginosa PAO1 harboring wspF gene mutation assessed as reduction in EPS production at 0.15625 to 0.625 uM by congo red binding assay; format: functional, organism-based; conditions: dose 0.15625-0.625 µM
[11] = Cytotoxicity against human AC16 cells assessed as cell survival at 1.25 uM incubated for 24 hrs by MTT assay relative to control; format: cell-based, AC16 [Human hybrid]; conditions: read-out: Survival
[12] = Binding affinity to guanosine monophosphate (unknown origin) at 5 uM by fluorescence method
[13] = Cytotoxicity against human AC16 cells assessed as cell survival at 0.15625 to 10 uM incubated for 24 hrs by MTT assay relative to control; format: cell-based, AC16 [Human hybrid]; conditions: dose 0.15625-10 µM, read-out: Survival
[14] = tested on: Pseudomonas aeruginosa; experiment: Effect on swarming capacity of Pseudomonas aeruginosa PAO1 harboring wspF gene mutation assessed as increase in motility at 2.5 uM incubated for 14 hrs relative to control; format: functional
[15] = tested on: c-di-GMP G-quadruplex; experiment: Downregulation of c-di-GMP level in Pseudomonas aeruginosa PAO1 harboring wspF gene mutation assessed as induction of tpbA expression at 1.25 uM incubated for 15 hrs by transcriptome analysis
[16] = tested on: DNA; experiment: Toxicity assessed as induction of Escherichia coli pBR322 DNA intercalation activity at 10 uM incubated for 10 mins by polyacrylamide gel electrophoresis method
[17] = tested on: c-di-GMP G-quadruplex; experiment: Induction of c-di-GMP G-quadruplex formation in Pseudomonas aeruginosa PAO1 harboring wspF gene mutation assessed as suppression of cdrA expression at 1.25 uM incubated for 15 hrs by transcriptome analysis
[18] = tested on: c-di-GMP G-quadruplex; experiment: Induction of c-di-GMP G-quadruplex formation in Pseudomonas aeruginosa PAO1 harboring wspF gene mutation assessed as induction of flhA expression at 1.25 uM by RT-PCR method
[19] = tested on: c-di-GMP G-quadruplex; experiment: Induction of c-di-GMP G-quadruplex formation in Pseudomonas aeruginosa PAO1 harboring wspF gene mutation assessed as induction of fleN expression at 1.25 uM incubated for 15 hrs by transcriptome analysis
[20] = tested on: Pseudomonas aeruginosa; experiment: Antibacterial activity against Pseudomonas aeruginosa PAO1 assessed as reduction in biofilm formation at 0.15625 to 1.25 uM by crystal violet staining method; format: functional, organism-based; conditions: dose 0.15625-1.25 µM
[21] = tested on: c-di-GMP G-quadruplex; experiment: Induction of c-di-GMP G-quadruplex formation in Pseudomonas aeruginosa PAO1 harboring wspF gene mutation assessed as inhibition of biofilm formation incubated for 24 hrs by confocal microscopic method; format: nucleic-acid assay
[22] = tested on: c-di-GMP G-quadruplex; experiment: Induction of c-di-GMP G-quadruplex formation in Pseudomonas aeruginosa PAO1 harboring wspF gene mutation assessed as reduction in pslE expression at 1.25 uM by RT-PCR method
[23] = tested on: Pseudomonas aeruginosa; experiment: Effect on extracellular polysaccharide in Pseudomonas aeruginosa PAO1 harboring wspF gene mutation assessed as reduction in EPS production at 1.25 uM by congo red binding assay relative to control; format: functional; design: scale not given: the % may be the effect or the level left
[24] = tested on: Pseudomonas aeruginosa; experiment: Effect on swarming capacity of Pseudomonas aeruginosa PAO1 harboring wspF gene mutation assessed as increase in motility at 3.75 uM incubated for 14 hrs relative to control; format: functional
[25] = tested on: c-di-GMP G-quadruplex; experiment: Induction of c-di-GMP G-quadruplex formation in Pseudomonas aeruginosa PAO1 harboring wspF gene mutation assessed as induction of flhF expression at 1.25 uM incubated for 15 hrs by transcriptome analysis
[26] = Binding affinity to r-NTP (unknown origin) at 5 uM by fluorescence method
[27] = tested on: Bacteria; experiment: Effect on WspR (unknown origin) assessed as reduction in c-di-GMP level at 1.25 to 5 uM measured by HPLC method; conditions: dose 1.25-5 µM
[28] = Binding affinity to d-NTP (unknown origin) at 5 uM by fluorescence method
[29] = tested on: Bacteria; experiment: Effect on RocR (unknown origin) assessed as induction of c-di-GMP degradation at 1.25 to 5 uM measured by HPLC method; conditions: dose 1.25-5 µM
[30] = tested on: c-di-GMP G-quadruplex; experiment: Downregulation of c-di-GMP level in Pseudomonas aeruginosa PAO1 harboring wspF gene mutation assessed as reduction in Alg44 expression at 1.25 uM incubated for 15 hrs by transcriptome analysis
[31] = tested on: c-di-GMP G-quadruplex; experiment: Induction of c-di-GMP G-quadruplex formation in Pseudomonas aeruginosa PAO1 harboring wspF gene mutation assessed as induction of fleN expression at 1.25 uM by RT-PCR method
[32] = tested on: Pseudomonas aeruginosa; experiment: Antibacterial activity against Pseudomonas aeruginosa PAO1 harboring wspF gene mutation assessed as reduction in bacterial growth at 0.15625 to 2.5 uM by confocal microscopic method; format: functional, organism-based; conditions: dose 0.15625-2.5 µM
[33] = tested on: c-di-GMP G-quadruplex; experiment: Induction of c-di-GMP G-quadruplex formation in Pseudomonas aeruginosa […] assessed as inhibition of biofilm formation at 0.15625 to 1.25 uM by confocal microscopic method; format: nucleic-acid assay; conditions: PAO1, dose 0.15625-1.25 µM
[34] = tested on: c-di-GMP G-quadruplex; experiment: Induction of c-di-GMP G-quadruplex formation in Pseudomonas aeruginosa PAO1 harboring wspF gene mutation assessed as induction of flgA expression at 1.25 uM incubated for 15 hrs by transcriptome analysis
[35] = tested on: c-di-GMP G-quadruplex; experiment: Induction of c-di-GMP G-quadruplex formation in Pseudomonas aeruginosa PAO1 harboring wspF gene mutation assessed as reduction in cdrA expression at 1.25 uM by RT-PCR method
[36] = tested on: c-di-GMP G-quadruplex; experiment: Induction of c-di-GMP G-quadruplex formation in Pseudomonas aeruginosa PAO1 harboring wspF gene mutation assessed as induction of flhA expression at 1.25 uM incubated for 15 hrs by transcriptome analysis

COc1cc(/C=C/c2sc3ccccc3[n+]2C)ccc1O.[I-]
Activity [1]: Active | Activity [2]: Active | Activity [3]: 77% | Activity [4]: Active | Activity [5]: Active | Activity [6]: inactive | Activity [7]: Active | inhibition [8]: 62.2% | IC50 [9]: 880 nM | Activity [10]: Active | viability at 24 h, 1.25 µM [11]: 96% | Activity [12]: Active | viability at 24 h, up to 10 µM [13]: > 90% | Activity [14]: 15% | Activity [15]: Active | Activity [16]: Non-Toxic | Activity [17]: Active | Activity [18]: Active | Activity [19]: Active | Activity [20]: Active | Activity [21]: Dose-Dependent Effect | Activity [22]: Active | Activity [23]: 30% | Activity [24]: 34% | Activity [25]: Active | Activity [26]: Active | Activity [27]: inactive | Activity [28]: Active | Activity [29]: inactive | Activity [30]: Active | Activity [31]: Active | Activity [32]: inactive | Activity [33]: Active | Activity [34]: Active | Activity [35]: Active | Activity [36]: Active
